From patent publication US20170008888A1 (KYORIN PHARMACEUTICAL CO., LTD., priority 2014, published 2017)

Legend:
Format in all cases: binding
ABL or ARG = assay: Probe-based (AX9989) kinase profiling in Jurkat lysate: ABL or ARG
Summary of the method: (§1)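 Compounds were pre-incubated for 15 min at room temperature with gel-filtered Jurkat cell lysate supplemented with 20 mM MnCl2, after which the acyl phosphate ATP probe AX9989 was added at 5 μM final. Labeled active-site peptides were enriched after tryptic digestion and measured by LC/MS, with percent inhibition taken relative to samples without compound.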

AMPKa1 or AMPKa2 = assay: Probe-based (AX9989) kinase profiling in Jurkat lysate: AMPKa1 or AMPKa2
Summary of the method: as §1

ERK5 = target: T1, ERK5 (Homo sapiens, UniProt Q13164); assay: Probe-based (AX9989 acyl phosphate ATP probe) kinase profiling in Jurkat lysate: ERK5; details: for IC50: calculated from percent inhibition of AX9989 labeling and the screening concentration, Jurkat lysate; for inhibition at 1 µM: screening concentration 1.0 μM
T1 construct: screened for activity against several kinases in Jurkat cells; endogenous in cells; host or cells: Jurkat cell lysate
T1 sequence (Q13164 whole entry): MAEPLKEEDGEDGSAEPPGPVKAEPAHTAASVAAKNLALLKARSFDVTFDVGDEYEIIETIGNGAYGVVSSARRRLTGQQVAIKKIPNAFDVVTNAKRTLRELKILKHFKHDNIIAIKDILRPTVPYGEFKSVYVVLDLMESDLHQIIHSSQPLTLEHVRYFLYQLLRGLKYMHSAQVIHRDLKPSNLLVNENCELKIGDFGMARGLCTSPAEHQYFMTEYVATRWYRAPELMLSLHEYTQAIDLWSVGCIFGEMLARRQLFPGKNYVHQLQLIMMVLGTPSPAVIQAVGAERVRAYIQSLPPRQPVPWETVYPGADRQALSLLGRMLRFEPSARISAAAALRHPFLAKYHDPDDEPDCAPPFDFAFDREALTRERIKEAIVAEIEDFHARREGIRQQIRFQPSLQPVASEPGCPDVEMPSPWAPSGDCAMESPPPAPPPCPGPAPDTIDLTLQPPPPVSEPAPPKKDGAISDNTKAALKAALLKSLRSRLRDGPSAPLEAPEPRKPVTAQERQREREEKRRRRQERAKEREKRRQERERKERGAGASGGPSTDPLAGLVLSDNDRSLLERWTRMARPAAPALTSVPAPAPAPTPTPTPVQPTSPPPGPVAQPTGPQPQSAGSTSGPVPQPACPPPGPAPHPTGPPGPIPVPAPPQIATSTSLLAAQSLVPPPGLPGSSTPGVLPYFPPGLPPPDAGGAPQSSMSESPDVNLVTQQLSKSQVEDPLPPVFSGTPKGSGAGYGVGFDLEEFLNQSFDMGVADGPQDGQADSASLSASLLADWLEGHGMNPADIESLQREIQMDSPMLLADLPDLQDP
Summary of the method: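 Gel-filtered Jurkat lysate (5 mg/ml, 20 mM MnCl2) preincubated 15 min at room temperature with compound, then labelled with 5 μM AX9989 acyl phosphate ATP probe. Probe-labelled ERK5 active-site peptides quantified by LC/MS after trypsin digestion and streptavidin capture; IC50 calculated from percent inhibition at the screening concentration.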

AurA = target: T2, AurA (Homo sapiens, UniProt O14965); assay: Probe-based (AX9989) kinase profiling in Jurkat lysate: AurA; details: read-out: Kinase inhibition % at indicated screening concentration: AurA; for inhibition at 1 µM: screening concentration 1.0 μM
T2 construct: screened for activity against several kinases in Jurkat cells; endogenous in cells; host or cells: Jurkat cell lysate
T2 sequence (O14965 1-403): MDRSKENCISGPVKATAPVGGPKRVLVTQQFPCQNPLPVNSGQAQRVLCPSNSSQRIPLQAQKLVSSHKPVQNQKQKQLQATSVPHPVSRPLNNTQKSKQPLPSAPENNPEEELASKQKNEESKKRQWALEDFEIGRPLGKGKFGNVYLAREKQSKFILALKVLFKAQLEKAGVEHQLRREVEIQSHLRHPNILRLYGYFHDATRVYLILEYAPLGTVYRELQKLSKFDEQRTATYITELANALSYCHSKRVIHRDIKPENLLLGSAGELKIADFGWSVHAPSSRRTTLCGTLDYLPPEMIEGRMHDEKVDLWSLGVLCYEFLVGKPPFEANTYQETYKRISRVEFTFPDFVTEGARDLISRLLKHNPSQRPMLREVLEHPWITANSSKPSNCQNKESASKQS
Summary of the method: as §1

ACK = target: T3, ACK (Homo sapiens, UniProt Q07912); assay: Probe-based (AX9989) kinase profiling in Jurkat lysate: ACK; details: read-out: Kinase inhibition % at indicated screening concentration: ACK; for inhibition at 1 µM: screening concentration 1.0 μM
T3 construct: screened for activity against several kinases in Jurkat cells; endogenous in cells; host or cells: Jurkat cell lysate
T3 sequence (Q07912 whole entry): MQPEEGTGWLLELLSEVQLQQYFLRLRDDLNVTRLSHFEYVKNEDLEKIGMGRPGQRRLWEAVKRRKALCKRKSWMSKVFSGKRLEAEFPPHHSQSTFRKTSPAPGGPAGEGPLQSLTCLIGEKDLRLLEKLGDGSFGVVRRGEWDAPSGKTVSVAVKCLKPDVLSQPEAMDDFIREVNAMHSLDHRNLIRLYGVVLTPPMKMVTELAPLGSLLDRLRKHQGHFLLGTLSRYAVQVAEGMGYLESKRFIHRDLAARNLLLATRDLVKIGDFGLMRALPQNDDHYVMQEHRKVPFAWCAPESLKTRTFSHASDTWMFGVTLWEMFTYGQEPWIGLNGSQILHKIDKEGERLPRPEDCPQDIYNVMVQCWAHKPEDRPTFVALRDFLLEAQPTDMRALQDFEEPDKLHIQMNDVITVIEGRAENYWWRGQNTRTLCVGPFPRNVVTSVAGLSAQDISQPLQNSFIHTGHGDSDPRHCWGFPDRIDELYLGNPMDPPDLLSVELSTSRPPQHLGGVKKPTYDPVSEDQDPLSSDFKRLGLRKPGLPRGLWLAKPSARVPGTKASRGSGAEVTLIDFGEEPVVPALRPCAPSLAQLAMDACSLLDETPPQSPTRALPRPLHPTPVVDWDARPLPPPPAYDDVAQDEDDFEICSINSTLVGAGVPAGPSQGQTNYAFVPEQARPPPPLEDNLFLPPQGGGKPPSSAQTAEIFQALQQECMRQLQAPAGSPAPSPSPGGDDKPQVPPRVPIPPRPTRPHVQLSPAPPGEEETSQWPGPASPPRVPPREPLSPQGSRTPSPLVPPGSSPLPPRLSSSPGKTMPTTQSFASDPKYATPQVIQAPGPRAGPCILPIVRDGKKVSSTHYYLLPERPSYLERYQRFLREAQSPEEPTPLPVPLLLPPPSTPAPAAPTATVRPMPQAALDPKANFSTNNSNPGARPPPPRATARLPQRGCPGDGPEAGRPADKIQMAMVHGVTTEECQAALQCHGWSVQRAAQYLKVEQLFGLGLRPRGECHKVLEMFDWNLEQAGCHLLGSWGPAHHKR
Summary of the method: as §1

JAK1 = target: T4, JAK1 (Homo sapiens, UniProt P23458); assay: Probe-based (AX9989) kinase profiling in Jurkat lysate: JAK1; details: read-out: Kinase inhibition % at indicated screening concentration: JAK1; for inhibition at 1 µM: screening concentration 1.0 μM
T4 construct: screened for activity against several kinases in Jurkat cells; endogenous in cells; host or cells: Jurkat cell lysate
T4 sequence (P23458 whole entry): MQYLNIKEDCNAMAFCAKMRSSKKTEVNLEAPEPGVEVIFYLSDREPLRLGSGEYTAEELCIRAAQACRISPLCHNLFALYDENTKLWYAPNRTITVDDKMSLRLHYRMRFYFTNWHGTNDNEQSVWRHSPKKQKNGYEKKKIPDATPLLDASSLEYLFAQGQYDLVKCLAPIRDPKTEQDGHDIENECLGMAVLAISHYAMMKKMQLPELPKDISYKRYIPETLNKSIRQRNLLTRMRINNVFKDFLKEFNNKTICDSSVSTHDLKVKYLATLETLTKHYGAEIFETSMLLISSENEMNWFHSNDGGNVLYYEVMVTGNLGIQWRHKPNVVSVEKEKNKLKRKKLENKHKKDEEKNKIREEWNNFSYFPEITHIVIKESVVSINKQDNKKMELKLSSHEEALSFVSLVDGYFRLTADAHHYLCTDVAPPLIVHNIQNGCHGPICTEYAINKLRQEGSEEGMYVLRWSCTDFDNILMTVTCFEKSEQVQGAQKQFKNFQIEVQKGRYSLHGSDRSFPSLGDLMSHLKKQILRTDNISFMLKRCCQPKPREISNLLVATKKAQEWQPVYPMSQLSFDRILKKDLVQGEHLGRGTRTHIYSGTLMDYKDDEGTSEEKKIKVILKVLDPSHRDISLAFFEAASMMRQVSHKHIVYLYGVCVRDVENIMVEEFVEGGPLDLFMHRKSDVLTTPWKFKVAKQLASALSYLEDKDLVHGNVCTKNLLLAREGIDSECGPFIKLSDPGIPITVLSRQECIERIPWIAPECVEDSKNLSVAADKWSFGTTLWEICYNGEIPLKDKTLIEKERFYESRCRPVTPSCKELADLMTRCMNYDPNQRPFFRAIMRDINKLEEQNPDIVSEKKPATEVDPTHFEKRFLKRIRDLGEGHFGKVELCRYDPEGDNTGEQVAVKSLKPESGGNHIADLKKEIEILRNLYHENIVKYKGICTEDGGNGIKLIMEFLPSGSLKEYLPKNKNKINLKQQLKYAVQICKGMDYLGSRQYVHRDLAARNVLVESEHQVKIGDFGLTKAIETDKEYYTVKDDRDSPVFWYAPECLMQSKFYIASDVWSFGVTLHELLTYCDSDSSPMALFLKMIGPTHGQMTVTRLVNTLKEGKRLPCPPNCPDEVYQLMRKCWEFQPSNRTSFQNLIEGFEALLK
Summary of the method: as §1

[1] = target: T5, BRD4 bromodomain domain I [BRD4(1)] (Homo sapiens, UniProt O60885); assay: BRD4 bromodomain domain 1 inhibition assay (TR-FRET); details: screening concentration 10 μM
T5 construct: BRD4 bromodomain domain I [BRD4(1)]; purchased Cayman Chemicals
Description: The inhibitory activity of test compounds on the bromodomain, BRD4 bromodomain domain I [BRD4(1)], were determined via TR-FRET after a slight modification of the manufacturer's protocol (Cayman Chemicals, Ann Arbor, Mich.). Briefly, compounds were diluted to a 20× ([…]) concentration in DMSO. 100 nL of 20× compounds were then dry stamped into triplicate wells of black, low volume 384 well plates (Aurora Biotechnologies, Carlsbad, Calif.) using the Mosquito liquid handler (TPP Labtech, Melbourn, UK). 20× compounds were then diluted to a 4× (40 μM) concentration in Assay Buffer to result in 2% DMSO content. […] JQ1 at 10 μM or 0.5% DMSO final concentrations were used as the positive and negative controls, respectively, to set the assay window. The fluorescence was read in a time-resolved format on the Biotec Synergy 2 plate reader by exciting the signal at 340 nm and reading emissions at 620 and 670, using a 100 μs delay and 200 μs read window. […] Briefly, TR-FRET ratio values were normalized to the average TR-FRET ratio value given by 10 μM JQ1. […]

AurB or AurC = assay: Probe-based (AX9989) kinase profiling in Jurkat lysate: AurB or AurC
Summary of the method: as §1

TAO2 = target: T6, TAO2 (Homo sapiens, UniProt Q9UL54); assay: Probe-based (AX9989) kinase profiling in Jurkat lysate: TAO2; details: read-out: Kinase inhibition % at indicated screening concentration: TAO2; for inhibition at 1 µM: screening concentration 1.0 μM
T6 construct: screened for activity against several kinases in Jurkat cells; endogenous in cells; host or cells: Jurkat cell lysate
T6 sequence (Q9UL54 1-1235): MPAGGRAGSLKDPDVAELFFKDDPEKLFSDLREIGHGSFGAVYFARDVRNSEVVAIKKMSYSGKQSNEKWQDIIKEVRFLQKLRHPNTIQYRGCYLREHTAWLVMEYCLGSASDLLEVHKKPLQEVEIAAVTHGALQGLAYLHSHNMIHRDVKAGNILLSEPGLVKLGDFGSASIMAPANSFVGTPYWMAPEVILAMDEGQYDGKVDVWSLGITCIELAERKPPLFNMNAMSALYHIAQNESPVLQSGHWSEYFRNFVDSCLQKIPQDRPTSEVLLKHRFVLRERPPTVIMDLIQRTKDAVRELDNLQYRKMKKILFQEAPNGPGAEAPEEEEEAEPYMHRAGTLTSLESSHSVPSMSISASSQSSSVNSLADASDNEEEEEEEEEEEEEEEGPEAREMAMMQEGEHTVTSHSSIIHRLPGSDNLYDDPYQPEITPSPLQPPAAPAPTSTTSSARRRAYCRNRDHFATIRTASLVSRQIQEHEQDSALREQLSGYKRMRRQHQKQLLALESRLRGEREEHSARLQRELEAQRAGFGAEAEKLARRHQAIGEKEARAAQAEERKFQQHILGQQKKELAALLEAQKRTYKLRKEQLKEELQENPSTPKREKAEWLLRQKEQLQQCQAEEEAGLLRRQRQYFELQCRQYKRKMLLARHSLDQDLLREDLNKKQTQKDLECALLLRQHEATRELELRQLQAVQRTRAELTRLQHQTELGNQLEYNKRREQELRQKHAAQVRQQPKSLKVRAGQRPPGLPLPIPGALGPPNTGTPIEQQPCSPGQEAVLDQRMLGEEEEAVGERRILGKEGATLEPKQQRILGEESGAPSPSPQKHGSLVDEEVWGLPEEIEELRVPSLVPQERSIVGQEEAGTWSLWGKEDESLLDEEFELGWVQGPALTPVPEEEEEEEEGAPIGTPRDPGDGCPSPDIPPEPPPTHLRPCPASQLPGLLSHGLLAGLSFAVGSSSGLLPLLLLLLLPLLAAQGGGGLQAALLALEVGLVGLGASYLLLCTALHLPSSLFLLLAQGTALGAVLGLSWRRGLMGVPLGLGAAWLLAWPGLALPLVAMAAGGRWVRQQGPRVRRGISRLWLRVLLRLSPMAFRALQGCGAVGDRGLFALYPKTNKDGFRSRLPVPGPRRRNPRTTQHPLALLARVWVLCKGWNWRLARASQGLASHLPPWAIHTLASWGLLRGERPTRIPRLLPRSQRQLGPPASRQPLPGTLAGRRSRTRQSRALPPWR
Summary of the method: as §1

[2] = read-out: Kinase inhibition % at indicated screening concentration: ERK5

Kinase inhibition % at indicated screening concentration: ABL or ARG (ABL or ARG; screening concentration 1.0 μM)	Kinase inhibition % at indicated screening concentration: AMPKa1 or AMPKa2 (AMPKa1 or AMPKa2; screening concentration 1.0 μM)	IC50 (ERK5) [nM]	inhibition at 1 µM (ERK5; [2]) [%]	inhibition at 1 µM (AurA) [%]	inhibition at 1 µM (ACK) [%]	inhibition at 1 µM (JAK1) [%]	inhibition at 10 µM [1] [%]	Kinase inhibition % at indicated screening concentration: AurB or AurC (AurB or AurC; screening concentration 1.0 μM)	inhibition at 1 µM (TAO2) [%]	Kinase inhibition % at indicated screening concentration: ABL or ARG (ABL or ARG; screening concentration 0.1 μM)	Kinase inhibition % at indicated screening concentration: AMPKa1 or AMPKa2 (AMPKa1 or AMPKa2; screening concentration 0.1 μM)	inhibition at 0.1 µM (ERK5; screening concentration 0.1 μM, read-out: Kinase inhibition % at indicated screening concentration: ERK5) [%]	inhibition at 0.1 µM (AurA; screening concentration 0.1 μM) [%]	inhibition at 0.1 µM (ACK; screening concentration 0.1 μM) [%]	inhibition at 0.1 µM (JAK1; screening concentration 0.1 μM) [%]	Kinase inhibition % at indicated screening concentration: AurB or AurC (AurB or AurC; screening concentration 0.1 μM)	inhibition at 0.1 µM (TAO2; screening concentration 0.1 μM) [%]	SMILES
E (E is ≦35%)	E (E is ≦35%)	> 500	50 to 75	≤ 35	≤ 35	≤ 35	70 to 85	E (E is ≦35%)	≤ 35	–	–	–	–	–	–	–	–	COc1c(Nc2cc3c(cn2)N(C)C(=O)c2ccccc2N3C)cccc1C(=O)N1CCNCC1 [Compound 78]
E (E is ≦35%)	E (E is ≦35%)	101 to 500	75 to 90	≤ 35	≤ 35	≤ 35	< 70	E (E is ≦35%)	≤ 35	–	–	–	–	–	–	–	–	CN1C(=O)c2ccccc2N(C)c2cc(NC3CCC(N)CC3)ncc21 (stereo not shown) [Compound 79]
–	–	101 to 500	–	–	–	–	< 70	–	–	E (E is ≦35%)	E (E is ≦35%)	≤ 35	≤ 35	≤ 35	≤ 35	E (E is ≦35%)	≤ 35	COc1cc(C(=O)N2CCC(N(C)C)C2)c(F)cc1Nc1cc2c(cn1)N(C)C(=O)c1ccccc1N2C (stereo not shown) [Compound 90]
E (E is ≦35%)	E (E is ≦35%)	≤ 50	> 90	≤ 35	≤ 35	35 to 50	70 to 85	C (C is >50% to ≦75%)	50 to 75	–	–	–	–	–	–	–	–	CN1CCC(c2ccc(Nc3cc4c(cn3)N(C)C(=O)c3ccccc3N4C)cc2)CC1 [Compound 92]
